Data on one molecule can be found in US12496302B2, “Compositions and methods for the treatment and diagnosis of cancer” (The General Hospital Corporation, priority 2020, dated 2025).

Format in all cases: cell-based
The test system of test [1] is cancer cell lines (HST578, MBAMD231, HCC1937, HCC1954). Nature of the test: Cell survival (colony) assay with TRDMT1i alone, Example 19. As to the method:
FIGS. 14A-14C show TRDMT1i alone reduce cancer cell survival in a dose-dependent manner. (FIG. 14A) Survival rate of HR proficient (HR+) HST578 cancer cells with and without siBRCA1 and/or TRDMT1i YW-1842 at indicated dose. The survival rate of these cells was analyzed (n=3, Mean±SD). (FIG. 14B) Survival rate of MBAMD231 (HR+) and HCC1937 (HRD) cells. The survival rate of these cells was analyzed (n=3, Mean±SD). (FIG. 14C) Cell survival rate in different cancer cell lines via colony-forming assay with the treatment of Imatinib at indicated dose (n=3, mean+/−S.D.). Cell lines are listed in order with the expression level from SYCP2high to SYCP2low.
HCC1500, HCC1954, BT549, MCF7 and MDAMB468 were cultured in Roswell Park Memorial Institute (RPMI) 1640 Medium (Sigma, R8758) with 10% (vol/vol) fetal bovine serum (FBS, XY Cell Culture, FBS-500) at 37° C., 5% CO2. siBRCA1 (L-003461-00, Dharmacon) was transfected with Lipofectamine RNAiMax (Invitrogen; Carlsbad, CA, USA). PARPi Olaparib (AZD2281/Ku-0059436, Sellekchem, S1060) and Pol theta inhibitor Novobiocin (Sigma) were used.
Cells were seeded in each 6-cm dish and cultured as described above. They were treated with drugs with indicated dose in medium after seeding. After 7-10 days, colonies were fixed and stained with 0.3% crystal violet in methanol, and the number of colonies was counted manually.

For the next test, the system named is γ-H2AX foci. The test can be described thus: γ-H2AX foci clearance after damage. Conditions: 2.5 μM/L YW-1842. As to the method:
FIGS. 6F-6G show TRDMT1 inhibitor YW-1842 delays the repair of DSBs at the transcribed genome. (FIG. 6F) U2OS or MCF7 cells were treated with or without compound YW-1842 at the indicated concentration. The survival rate of these cells was shown (n=3, Mean±SD). (FIG. 6G) SCE WT cells were transfected with TA-KR and were cultured with 2.5 μM YW-1842 or not for 6 hours, γ-H2AX (n=3, 50 cells per replicated, Mean±SD) were stained and quantified.
Cells for immunofluorescence observation were fixed in 4% PFA (Affymetrix, 19943 1 LT) at room temperature for 15 min and further treated with 0.2% triton for 10 min. They were then blocked by 3% BSA (SIGMA, A-7030) at room temperature for 1 h. Primary antibody for RAD51 (ab63801, Abcam, 1:200)), RAD52 (sc-365341, Santa Cruz, CA, USA, 1:500), TRIM28 (ab10484, Abcam, 1:500), γH2AX ser139 (JBW301, 05-636, EMD Millipore, 1:200), were incubated with cells at 4° C. overnight. After washing with 0.05% PBS-Tween (PBST), the cells were incubated with secondary antibody for 1 h at room temperature.

The next test relates to U2OS (EJ5-GFP) cells. Nature of the test: EJ5-GFP NHEJ reporter assay. Conditions: 2.5 μM/L for 6 h, TRDMT1 wild type cells. As to the method:
FIGS. 6A-6E show TRDMT1 Inhibitors specifically sensitizes cells to DNA damage agents. (FIG. 6A) SCE WT cells were transfected with TA-KR and were cultured with 2.5 μM/L, compound YW-1842 or not for 6 hours, m^5C (n=3, 50 cells per replicated, Mean±SD) was stained and quantified. DR-GFP (FIG. 6B) or EJ5-GFP (FIG. 6C) cells were pre-treated with 2.5 μM/L, compound YW-1842 for 6 h or TRDMT1 siRNA for 48 h, or DMSO. Then the cells were transfected with NLS-I-SceI plasmid to induce DSB. The efficiency of HR (FIG. 6B) or NHEJ (FIG. 6C) was analyzed by flow-cytometry (n=3, Mean±SD). (FIG. 6D) After seeding, MCF-7, HCC1954, and HCC1937 cells were pre-treated with or without 2.5 μM/L compound YW-1842 for 6 h, then cultured with chemotherapy drugs (1 μM/L, Cisplatin; 1 μM/L ATRi AZ20; 10 μM/L, ATMi KU55933; 1 μM/L, PARPi Olaparib for 10 days. The survival rate of these cells was analyzed (n=3, Mean±SD). (FIG. 6E) TRDMT1 KO U2OS cells were transfected with GFP-TRDMT1^WT or GFP-TRDMT1^G155V with or without 2.5 μM/L, compound YW-1842, the survival rate of these cells after IR or Cisplatin was shown (n=3, Mean±SD).
Using a previously described method[Lan, L. et al. The ACF1 complex is required for DNA double-strand break repair in human cells. […] The GFP signal arising from the recombination (HR) or non-homologous end joining (NHEJ) events were measured by flow cytometry.
In general terms: In a reporter assay the amount or activity of a reporter protein is the signal.

As to `COc1cc2nc(-n3cc(-c4ccc(S(C)(=O)=O)cc4)cn3)nc(-c3ccsc3)c2cc1OC` [YW-1842, 6,7-dimethoxy-2-(4-(4-(methylsulfonyl)phenyl)-1H-pyrazol-1-yl)-4-(thiophen-3-yl)quinazoline], the “cell killing of HCC1954” value in test [1] (HCC1954 (HRD, high SYCP2)) is “efficiently killed HCC1954”. Moreover, the “cell survival, TRDMT1i alone” value in test [1] (HR-proficient HST578 cells) is “kills HR-proficient cancer cells HST578 in a dose-dependent manner”. The “TRDMT1i sensitivity with BRCA1 knockdown” value in test [1] (HST578 cells with siBRCA1) is “significantly increased”. In addition, the “cell killing across cancer cell lines by SYCP2 level and HR status” value in test [1] (cell lines ordered SYCP2high to SYCP2low) is “killed SYCP2-high cancer cell lines and HR deficient cells the most efficiently”. Moreover, the “DNA repair efficiency (clearance of γ-H2AX foci after IR)” value in the test with γ-H2AX foci was “delayed clearance of γ-H2AX foci”. The “non-homologous end joining (NHEJ) efficiency” value with U2OS (EJ5-GFP) cells is listed as “no obvious changes”.
